This is an account of results in patent US20140296223A1, “METHOD FOR REGULATING SKIN PIGMENTATION” (THE GENERAL HOSPITAL CORPORATION, priority 2011, published 2014).

One data set has as its system Skme15. The data set can be described thus: Toxicity with fluorescence viability probe (CellTiter-Fluo Cell Viability Assay). Particulars: composite of the variation between drug-treated and control divided by the standard error. It is filed as cell-based, human. The procedure:
Although the shape of the dose-response can vary among hits, the inventors chose to include all candidates which produce dose-dependent effects. The fourth criterion which was determined is the IC50 (described formally as qAC50) which represents the half-maximal suppression dose. Most of the candidate hits resided in the high nanomolar to low micromolar range by this criterion (all of these validation data are listed in Table 1). The fifth criterion was maximal suppression (at any dose), which represented the magnitude of suppression which was attainable regardless of the dose required to achieve it. […] The sixth criterion to be determined is the Log P partition coefficient, which is a predictor of lipophilicity. For this, the inventors have used the method of Ghose and Crippen to calculate the predicted octanol-water partition coefficient (J. Comp. Chem. 9, 80(1988)). While this is only an estimate of potential skin penetration, the analysis was carried out because it helps in prioritizing likelihood of topical effectiveness, in theory. The seventh criterion was an analysis of toxicity utilizing a fluorescence viability probe (CellTiter-Fluo™ Cell Viability Assay (Promega)). Interpretation of this endpoint is complicated by the fact that it represents a composite of the variation between drug-treated and control divided by the standard error The results shown in Table 1 indicate 34 candidate molecules which satisfied all of the criteria outlined above. […] Most of their potencies ranged slightly below or above 1 uM. While the lipophilicity scores remain imperfect predictors of skin penetration capability. However, numbers of >3 can be more likely to penetrate.

Data set [1] deals with Microphthalmia Transcription Factor (MITF). The data set can be described thus: TRPM1-luciferase reporter screen for MITF antagonists in Skme15 melanoma cells. Particulars: screen, suppression of TRPM1-luciferase activity, Skme15 cells. The class given is cell-based, human. The text has this:
In order to carry out a successful MITF antagonist screen, the inventors utilized a TRPM1-luciferase reporter. […] Therefore, the TRPM1-luciferase reporter stably integrated into melanoma cells is effective for the screening assay. The use of melanoma cells, while less perfectly relevant than primary human melanocytes, afforded the advantages of speed and reproducibility for the screen.
In order to engineer a screen which broadly suppress MITF activity either by suppression of MITF expression or by inhibition of MITF activity, the inventors utilized a luciferase reporter containing the promoter of a strong direct transcriptional target of MITF, i.e., TRPM1 gene, the inventors have identified the active ingredients having the ability of inhibiting the expression or activation of Microphthalmia Transcription Factor (MITF) for medical or esthetic benefit. The inventors have previously identified the TRPM1 gene (also called “Melastatin”) as a direct target of MITF, which contains numerous MITF binding sites, and which directly responds in potent fashion to MITF overexpression (Miller A J, Du J, Rowan S, Hershey C L, Widlund H R, Fisher D E: Transcriptional regulation of the melanoma prognostic marker melastatin (TRPM1) by MITF in melanocytes and melanoma, Cancer Res 2004, 64:509-516). TRPM1 expression also correlates closely to MITF expression within human melanoma cell lines, as well as in clinical pigmented lesions (nevi and melanomas).
The TRPM1 promoter was ligated to the luciferase gene and inserted into a retroviral vector as well as a lentiviral vector. The lentiviral vector was used to infect primary human melanocytes, which then was subjected to a primary screen using the Broad Chemical Genetics core screening facility, and its natural products/extracts libraries. As backup, the retroviral vector was used to stably integrate into the genome of melanoma cells, which can be used for the identical small molecule screen. Screen optimization was carried out using forskolin and MSH as positive control small molecules (which upregulate cAMP and MITF expression (D'Orazio J A, Nobuhisa T, Cui R, Arya M, Spry M, Wakamatsu K, Igras V, Kunisada T, Granter S R, Nishimura E K, Ito S, Fisher D E: Topical drug rescue strategy and skin protection based on the role of Mc1r in UV-induced tanning, Nature 2006, 443:340-344)). Small molecules which suppress MSH induced TRPM1-luciferase without altering cell numbers or viability, represent initial “hits” in this screen. Negative control includes a constitutive luciferase vector within the same cells (eg driven by a constitutive promoter such as thymidine kinase promoter), to control for nonspecific inhibitors of basal transcriptional machinery-something which would otherwise be assessed in detail during secondary/tertiary analyses of candidate hits.
The human melanoma cell line Skme15 was utilized due to the advantageous growth properties as well as the inventors' prior experience that Skme15 expresses a typical level of MITF protein. […] Therefore, an integrated TRPM1-luciferase reporter was generated, and the subsequent cells were cloned twice (serially) to assure purity of the reporter cell population. Cells were maintained in drug selection to assure maintenance of the luciferase reporter (when drug was omitted, eventual loss of the luciferase signal was observed). Following re-cloning, distinct isolates were selected for further use on the basis of clonogenic growth on 384 well plates, as required for the small molecule screen. A positive control for suppression of TRPM1-luciferase signal utilized: a lentivirus encoding shRNA against MITF. […] The day-to-day variability in plating efficiency was analyzed, and found very high reproducibility in the line which was selected for further use in the screen.
The screen was carried out with a library from the Broad Institute comprising a mixture of natural products, known bioactives, and additional compounds (a total of about 13,000 compounds). […]

Regarding `Cc1ccc2nc(-c3ccc(NC(=O)CSc4nnc(C)s4)cc3)sc2c1` [N-[4-(6-methyl-1,3-benzothiazol-2-yl)phenyl]-2-[(5-methyl-1,3,4-thiadiazol-2-yl)thio]acetamide], the “Viability z-score (treated minus control, divided by standard error)” value in the data set on Skme15 was 1.032. Also, the Z-Score in data set [1] was −9.3543.

For `COc1ccc(OC)c(S(=O)(=O)N2CCC(C(=O)Nc3ccc(Cl)c(C(F)(F)F)c3)CC2)c1` [N-[4-chloro-3-(trifluoromethyl)phenyl]-1-[(2,5-dimethoxyphenyl)sulfonyl]piperidine-4-carboxamide], the “Viability z-score (treated minus control, divided by standard error)” value in the data set with Skme15 is −0.2442. The Z-Score in data set [1] is given as −9.871.

As for `Cc1oc(-c2ccc3c(c2)OCCO3)cc1C(=O)NCC(=O)O` [N-[5-(2,3-dihydro-1,4-benzodioxin-6-yl)-2-methyl-3-furoyl]glycine], the “Viability z-score (treated minus control, divided by standard error)” value in the data set with Skme15 is −0.0206. Also, the Z-Score in data set [1] is reported as −10.0065.

Consider `COc1cccc(C(=O)NC(c2ccc(Cl)cc2)c2c(O)ccc3ccccc23)c1` (stereo not shown) [N-[(4-chlorophenyl)(2-hydroxy-1-naphthyl)methyl]-3-methoxybenzamide], for which the “Viability z-score (treated minus control, divided by standard error)” value in the data set on Skme15 was −0.1221. Besides, the Z-Score in data set [1] is on record as −11.9861.

Regarding `O=C(CCSc1nc(-c2ccccc2)cs1)Nc1ccccc1` [N-phenyl-3-[(4-phenyl-1,3-thiazol-2-yl)thio]propanamide], the “Viability z-score (treated minus control, divided by standard error)” value in the data set with Skme15 was −0.2442. In data set [1], this compound came in with a Z-Score of −10.8255.

On to `O=C(O)COc1cccc(-c2nc3ccccc3s2)c1` [[3-(1,3-benzothiazol-2-yl)phenoxy]acetic acid], for which the “Viability z-score (treated minus control, divided by standard error)” value with Skme15 is −0.0206. Further, the Z-Score in data set [1] is −11.9101.

Turning to `N#CC(C#N)=C(Nc1ccccc1Cl)SCc1cccc(F)c1` [{[(2-chlorophenyl)amino][(3-fluorobenzyl)thio]methylene}malononitrile], the “Viability z-score (treated minus control, divided by standard error)” value in the data set with Skme15 is recorded as −1.5092. This compound also returned a Z-Score in data set [1] of −10.3064.

Consider `N#CC(C#N)=C(Nc1ccc(Br)cc1)SCc1ccc(F)cc1` [{[(4-bromophenyl)amino][(4-fluorobenzyl)thio]methylene}malononitrile], for which the “Viability z-score (treated minus control, divided by standard error)” value with Skme15 was −1.5092. Moreover, the Z-Score in data set [1] was −9.463.
